Measurements: ChEMBL document CHEMBL3734688, “Synthesis and evaluation of 6-methylcoumarin derivatives as potent and selective monoamine oxidase B inhibitors” (Medchemcomm, 2015)

Tests used:
[1] = molecular target: T1, Amine oxidase [flavin-containing] A (Homo sapiens, UniProt P21397); assay: Inhibition of recombinant human MAO-A using p-tyramine as substrate preincubated for 15 mins followed by substrate addition by Amplex Red probe-based fluorometric analysis
T1 sequence (P21397 whole entry): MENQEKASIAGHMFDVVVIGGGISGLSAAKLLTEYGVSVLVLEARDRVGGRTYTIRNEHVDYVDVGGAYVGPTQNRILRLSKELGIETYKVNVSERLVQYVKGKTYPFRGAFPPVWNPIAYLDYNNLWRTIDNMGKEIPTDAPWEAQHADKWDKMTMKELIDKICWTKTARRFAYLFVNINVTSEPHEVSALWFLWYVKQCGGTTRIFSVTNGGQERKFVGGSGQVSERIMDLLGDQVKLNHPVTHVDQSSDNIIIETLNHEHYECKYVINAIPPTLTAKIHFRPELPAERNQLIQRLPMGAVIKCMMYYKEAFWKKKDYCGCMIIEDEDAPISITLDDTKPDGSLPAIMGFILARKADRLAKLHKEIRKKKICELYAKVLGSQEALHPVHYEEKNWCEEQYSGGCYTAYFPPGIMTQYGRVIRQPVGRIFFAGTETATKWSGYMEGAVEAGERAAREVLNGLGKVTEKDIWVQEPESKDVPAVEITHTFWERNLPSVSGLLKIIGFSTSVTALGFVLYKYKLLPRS

[2] = molecular target: T2, Amine oxidase [flavin-containing] B (Homo sapiens, UniProt P27338); assay: Inhibition of recombinant human MAO-B using p-tyramine as substrate preincubated for 15 mins followed by substrate addition by Amplex Red probe-based fluorometric analysis
T2 sequence (P27338 whole entry): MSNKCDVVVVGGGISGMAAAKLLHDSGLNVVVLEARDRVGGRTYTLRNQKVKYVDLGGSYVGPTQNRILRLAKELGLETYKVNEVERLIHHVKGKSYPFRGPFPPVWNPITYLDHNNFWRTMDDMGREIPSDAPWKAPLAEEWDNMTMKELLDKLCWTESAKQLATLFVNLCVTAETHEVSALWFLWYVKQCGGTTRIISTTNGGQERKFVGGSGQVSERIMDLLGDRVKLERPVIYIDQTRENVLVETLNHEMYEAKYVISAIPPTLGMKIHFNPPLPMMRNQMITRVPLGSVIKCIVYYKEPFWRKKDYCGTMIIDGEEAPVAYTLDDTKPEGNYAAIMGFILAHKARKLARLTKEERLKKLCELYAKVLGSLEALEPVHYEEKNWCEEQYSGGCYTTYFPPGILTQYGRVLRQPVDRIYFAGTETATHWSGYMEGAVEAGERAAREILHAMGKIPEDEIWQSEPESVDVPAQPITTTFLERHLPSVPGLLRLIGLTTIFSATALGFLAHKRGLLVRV

[3] = species: Homo sapiens; assay: Selectivity index, ratio of IC50 for recombinant human MAO-A to IC50 for recombinant human MAO-B
[4] = molecular target: T1, Amine oxidase [flavin-containing] A; assay: Inhibition of recombinant human MAO-A using p-tyramine as substrate at 100 uM preincubated for 15 mins followed by substrate addition by Amplex Red probe-based fluorometric analysis
[5] = test system: HUVEC; assay: Toxicity in HUVEC assessed as cell viability at 2.5 to 20 uM after 48 hrs by MTT assay; type: cell-based; details: human
[6] = Neurotoxicity in rat PC12 cells assessed as cell viability at 2.5 to 20 uM after 48 hrs by MTT assay; type: toxicity, cell-based; details: pc-12, 48 h
[7] = test system: SH-SY5Y; assay: Neurotoxicity in human SH-SY5Y cells assessed as cell viability at 2.5 to 20 uM after 48 hrs by MTT assay; type: toxicity, cell-based

Structure (SMILES)	IC50 [1] [µM]	IC50 [2] [µM]	Ratio IC50 [3]	inhibition (INH) [4]	Activity [5]	Activity [6]	Activity [7]
Cc1ccc2oc(=O)c(-c3c[nH]c4ccccc34)cc2c1	43.9	5.67	7.75	–	–	–	–
Cc1ccc2oc(=O)c(-c3ccccc3OCc3cccc(F)c3)cc2c1	–	0.253	> 395	Not Active	–	–	–
CC(=O)Oc1ccc(-c2cc3cc(C)ccc3oc2=O)cc1	–	0.401	> 249	Not Active	–	–	–
CC(=O)Oc1cccc(-c2cc3cc(C)ccc3oc2=O)c1	–	0.714	> 140	Not Active	–	–	–
Cc1ccc2oc(=O)c(-c3cccc(OC(=O)N(C)C)c3)cc2c1	–	4.43	> 22.6	Not Active	–	–	–
Cc1ccc2oc(=O)c(-c3cccc(OC(=O)c4ccccc4)c3)cc2c1	15.8	0.651	24.2	–	–	–	–
Cc1ccc2oc(=O)c(-c3cccc(OCCBr)c3)cc2c1	20.7	2.45	8.47	–	–	–	–
Cc1ccc2oc(=O)c(-c3cccc(OCCCN(C)C)c3)cc2c1	34.9	0.905	38.6	–	–	–	–
Cc1ccc2oc(=O)c(-c3ccccc3OCc3ccccc3)cc2c1	–	0.256	> 390	Not Active	–	–	–
Cc1ccc2oc(=O)c(-c3cccc(OCc4cccc(F)c4)c3)cc2c1	–	0.0601	> 1660	Not Active	Non-toxic	Non-toxic	Non-toxic
Cc1ccc2oc(=O)c(-c3cccc(OCc4ccccc4)c3)cc2c1	–	0.201	> 498	Not Active	–	–	–
Cc1ccc2oc(=O)c(-c3cccnc3)cc2c1	6.67	2.58	2.59	–	–	–	–
Cc1ccc2oc(=O)c(-c3ccc(OCc4ccccc4)cc3)cc2c1	–	0.106	> 947	Not Active	–	–	–
Cc1ccc2oc(=O)c(-c3ccc(OCc4cccc(F)c4)cc3)cc2c1	–	0.175	> 572	Not Active	–	–	–
Cc1ccc2oc(=O)c(-c3cccc4ccccc34)cc2c1	55.5	6.49	8.55	–	–	–	–
Cc1ccc2oc(=O)c(-c3cccs3)cc2c1	8.09	3.76	2.16	–	–	–	–
Cc1ccc2oc(=O)c(-c3cccc(OCCCBr)c3)cc2c1	19.5	3.67	5.3	–	–	–	–
Cc1ccc2oc(=O)c(-c3cccc(OCCCCBr)c3)cc2c1	40.6	10.7	3.79	–	–	–	–
Cc1ccc2oc(=O)c(-c3cccc(OCCCCN(C)C)c3)cc2c1	26.7	1.13	23.6	–	–	–	–
CC(=O)Oc1ccccc1-c1cc2cc(C)ccc2oc1=O	–	0.938	> 107	Not Active	–	–	–
Cc1ccc2oc(=O)c(-c3cccc(OCCN(C)C)c3)cc2c1	–	0.218	> 459	Not Active	–	–	–
Cc1ccc(S(=O)(=O)Oc2cccc(-c3cc4cc(C)ccc4oc3=O)c2)cc1	–	0.305	> 328	Not Active	–	–	–
